The values below come from ChEMBL document CHEMBL6177944, “Derivatization of ophiobolin A and cytotoxicity toward breast and glioblastoma cancer stem cells: Varying the ketone and unsaturated aldehyde moieties” (Bioorg Med Chem Lett, 2025).

pIC50: −log10 of the molar value. Calls of active or inactive are those of the source. No cut-off for these calls is given here. A value given as a limit tells only on which side of the number the result lay.

For one series, the system named is T98G. Briefly: Cytotoxicity against human T98G cells. The series is classed as functional, cell-based.
The nature of series [1]: Cytotoxicity against HMLE cells. The series is classed as toxicity, cell-based. The conditions noted are these: human.
Series [2] in a line: (§1) Cytotoxicity against HMLE cells expressing Twist EMT+. The conditions noted are these: Homo sapiens. It is filed as functional, cell-based.
Series [3] in a line: Selectivity index, ratio of IC50 for cytotoxicity against human T98G cells to IC50 for cytotoxicity against human GBM43 cells. The series is classed as functional.
A short description of series [4]: Selectivity index, ratio of IC50 for cytotoxicity against HMLE cells to IC50 for cytotoxicity against human HMLE cells expressing Twist EMT+. It is filed as toxicity, cell-based. The conditions noted are these: HMLE cells and HMLE cells expressing Twist (EMT+), read-out: Ratio IC50.
The subject of a further series is MCF7. Kind of series: Cytotoxicity against human MCF7 cells. It is filed as functional, cell-based.
Series [5] in a line: Selectivity index, ratio of IC50 for cytotoxicity against human MCF7 cells to IC50 for cytotoxicity against human MDA-MB-231 cells. The series is classed as cell-based.
A further series has as its system MDA-MB-231. Kind of series: Cytotoxicity against human MDA-MB-231 cells. It is filed as functional, cell-based.
Series [6] can be described thus: Cytotoxicity against HMLE cells assessed as reduction in cell viability at 1 uM relative to control. It is filed as toxicity, cell-based. The conditions noted are these: human.
A further series has as its system HMLE. The description is as §1. The series is classed as functional, cell-based. The conditions noted are these: Homo sapiens.
A short description of series [7]: Cytotoxicity against human GBM43 cells. It is filed as functional, cell-based. The conditions noted are these: GBM43 cell.

On to `CC(C)=C[C@H]1C[C@H](C)[C@]2(CC[C@]3(C)C[C@H]4[C@H](C(=O)C[C@@]4(C)O)/C(C=O)=C\C[C@H]32)O1` [OPHIOBOLIN A], for which the figures for the pIC50 (with T98G; in series [1]; in series [2]) were 5.72, 7.20 and 7.54, respectively. Also, the “Ratio IC50” value in series [3] is recorded as ~9. Besides, the selectivity ratio in [4] is ~2.1.
In the case of `CC(C)=C[C@H]1C[C@H](C)[C@]2(CC[C@]3(C)C[C@H]4[C@H]5/C(=C\C[C@H]32)C(O)O[C@H]5C[C@@]4(C)O)O1` (stereo partly specified), the pIC50 (in general, the IC50 on a negative log10 scale, so that one unit is a factor of ten) in the series with MCF7 was 4.40; in the series with MDA-MB-231, 3.80; in series [1] it was 4.30; in series [2], 4.65. For the same compound, the “Ratio IC50” value in series [5] is given as ~ 0.25. The selectivity ratio in series [4] is ~2.2.
For the compound `COc1cccc2c1C(=O)c1c(O)c3c(c(O)c1C2=O)C[C@@](O)(C(=O)CO)C[C@@H]3O[C@H]1C[C@H](N)[C@H](O)[C@H](C)O1` [DOXORUBICIN], the Activity in [6] is listed as < 50%. Moreover, the result with HMLE was inactive.
On to `CC(C)=C[C@H]1C[C@H](C)[C@]2(CC[C@]3(C)C[C@@H]4C(C)=CC(=O)[C@@H]4/C(CO)=C\C[C@H]32)O1`, for which the pIC50 in the series with T98G was 3.53; in [7], 4.62. The “Ratio IC50” value in series [3] was ~12.
As for `CC(C)=C[C@H]1C[C@H](C)[C@]2(CC[C@]3(C)C[C@H]4[C@@H](/C(CO)=C\C[C@H]32)[C@@H](O)C[C@@]4(C)O)O1`, the pIC50 in the series on MCF7 was 3.41; in the series on T98G, < 3.00; in the series with MDA-MB-231, 3.42; in series [7], < 3.00; in [1] it was 3.85; in [2] it was 3.87. In addition, in series [5], the “Ratio IC50” value was ~ 1. The selectivity ratio in [4] was ~1.
Consider `CC(C)=C[C@H]1C[C@H](C)[C@]2(CC[C@]3(C)C[C@H]4[C@H]5/C(=C\C[C@H]32)CO[C@@]5(O)C[C@@]4(C)O)O1`, for which the pIC50 in the series with MCF7 is 3.97; with MDA-MB-231, 3.89; in series [1], 4.59; in [2] it was 5.05. In addition, the “Ratio IC50” value in series [5] is listed as ~ 0.84. Also, the selectivity ratio in series [4] is ~2.9.
Consider `CC(C)=C[C@H]1C[C@H](C)[C@]2(CC[C@]3(C)C[C@H]4[C@H]5[C@@H](CC[C@H]32)[C@H](O)O[C@H]5C[C@@]4(C)O)O1`, for which the pIC50 was 3.83 in the series on MCF7; 3.35 with T98G; 3.87 in the series on MDA-MB-231; 3.44 in series [7]; 4.24 in [1]; 3.91 in series [2]. Also, the “Ratio IC50” value in series [5] is on record as ~ 1.1; in [3] it was ~1.2. The selectivity ratio in series [4] is ~0.47.
As to `CC(C)=C[C@H]1C[C@H](C)[C@]2(CC[C@]3(C)C[C@H]4[C@H]5/C(=C\C[C@H]32)C(=O)O[C@H]5C[C@@]4(C)O)O1` [OPHIOBOLIN A LACTONE], the negative logarithm of the IC50 (pIC50) is 3.63 in the series on MCF7; 3.99 in the series on T98G; 3.50 with MDA-MB-231; 5.07 in series [7]; 4.04 in series [1]; 4.20 in series [2]. In addition, the “Ratio IC50” value was ~ 0.74 in series [5] and ~12 in series [3]. Also, in series [4], the selectivity ratio is ~1.4.
For `CC1(C)CC/C=C(/C=O)[C@H]2C(=O)C[C@@](C)(O)[C@H]2C1`, the pIC50 in the series on T98G is 3.07; in [7] it was 3.97. In addition, the “Ratio IC50” value in [3] was ~8.
